The target of test [1] is T1, FLT3-ITD (Homo sapiens, UniProt P36888).
T1 sequence (P36888 1-993): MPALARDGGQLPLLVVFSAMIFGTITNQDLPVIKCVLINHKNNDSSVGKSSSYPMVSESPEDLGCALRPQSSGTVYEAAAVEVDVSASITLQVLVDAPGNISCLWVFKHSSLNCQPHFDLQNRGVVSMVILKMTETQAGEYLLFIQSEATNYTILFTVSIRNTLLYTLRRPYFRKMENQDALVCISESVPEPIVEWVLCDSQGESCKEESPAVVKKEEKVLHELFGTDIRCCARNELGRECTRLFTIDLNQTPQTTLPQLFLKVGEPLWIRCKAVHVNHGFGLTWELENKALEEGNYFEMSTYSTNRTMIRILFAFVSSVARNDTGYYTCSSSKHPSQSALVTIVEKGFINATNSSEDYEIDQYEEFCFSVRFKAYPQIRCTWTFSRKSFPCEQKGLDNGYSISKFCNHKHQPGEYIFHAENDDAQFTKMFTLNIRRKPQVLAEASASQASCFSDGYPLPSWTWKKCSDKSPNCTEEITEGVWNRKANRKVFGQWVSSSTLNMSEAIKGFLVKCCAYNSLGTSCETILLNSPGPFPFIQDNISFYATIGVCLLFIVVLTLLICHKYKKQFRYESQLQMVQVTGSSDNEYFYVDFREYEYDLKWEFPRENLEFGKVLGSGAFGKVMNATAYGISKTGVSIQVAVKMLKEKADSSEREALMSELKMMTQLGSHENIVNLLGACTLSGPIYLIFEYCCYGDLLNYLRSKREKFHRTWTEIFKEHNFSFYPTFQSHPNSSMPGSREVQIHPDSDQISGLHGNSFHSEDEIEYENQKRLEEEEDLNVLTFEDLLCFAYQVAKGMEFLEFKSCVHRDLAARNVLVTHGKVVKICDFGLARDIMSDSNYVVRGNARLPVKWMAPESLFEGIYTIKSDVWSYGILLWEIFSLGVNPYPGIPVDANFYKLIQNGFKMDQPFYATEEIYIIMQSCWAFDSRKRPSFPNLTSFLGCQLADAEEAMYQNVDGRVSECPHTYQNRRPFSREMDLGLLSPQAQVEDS
Description: AlphaScreen kinase assay with recombinant enzyme, FLT3-ITD. To be noted: 8pt; read-out: FLT3_ITD 8pt: IC50. In kind it is biochemical. Summed up: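 Compounds in DMSO added to enzyme plus biotin-poly(Glu4-Tyr) (30 nM) in assay buffer, then ATP added. Streptavidin donor beads added (20 min, RT), then PY20 acceptor beads (60 min, RT), both at 10 μg/mL final in stop/detection buffer. IC50 conditions: 10 μM FLT3-D835Y/ITD, 100 μM c-KIT.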

The subject of test [2] is MOLM-14 D835Y cells, FLT3 ITD and FLT3 D835Y. Description: Cell proliferation assay (CellTiter-Glo), MOLM-14 D835Y. To be noted: Homo sapiens, 72 h, 3d-Growth, GMean. In kind it is cell-based. Summed up: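 MOLM-14 AML cells (endogenous FLT3 ITD, AC220-selected D835Y or F691L variants) or murine Ba/F3 expressing full-length FLT3 ITD/D835Y, without IL-3 for FLT3 dependence, 1×10^4 cells/well. Eight-point 1:3 series from 1 μM final, 0.2% DMSO, 3 days at 37 °C. CellTiter-Glo luminescence (ATP) gave IC50.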

Consider `CC(C)(C#N)NC(=O)c1cccc(-c2cnc3[nH]c(-c4cnn(C5CCNCC5)c4)cc3c2)n1` [Compound P-0187, N-(1-cyano-1-methyl-ethyl)-6-[2-[1-(4-piperidyl)pyrazol-4-yl]-1H-pyrrolo[2,3-b]pyridin-5-yl]pyridine-2-carboxamide], for which the IC50 in test [1] and in test [2] was 0.0001 to 10 µM in each case.
For `CC(C)(C#N)NC(=O)c1cccc(-c2cnc3[nH]c(C4=CCN(S(=O)(=O)C5CC5)CC4)cc3c2)n1` [Compound P-0188, N-(1-cyano-1-methyl-ethyl)-6-[2-(1-cyclopropylsulfonyl-3,6-dihydro-2H-pyridin-4-yl)-1H-pyrrolo[2,3-b]pyridin-5-yl]pyridine-2-carboxamide], the half-inhibitory concentration (IC50) in test [1] and in test [2] was 0.0001 to 10 µM each time.
For the molecule `CC(C)(C#N)NC(=O)c1cccc(-c2cnc3[nH]c(-c4ccc(C5CC5)cc4)cc3c2)n1` [Compound P-0189, N-(1-cyano-1-methyl-ethyl)-6-[2-(4-cyclopropylphenyl)-1H-pyrrolo[2,3-b]pyridin-5-yl]pyridine-2-carboxamide], the IC50 in test [1] and in test [2] was 0.0001 to 10 µM throughout.

The values above are taken from patent publication US9938273B2 (Plexxikon Inc., priority 2015, dated 2018).
